{
  "source": "patent US12053504B2",
  "about": "“Anti-angiogenic treatment using VLO4 with a blocking peptide” ([…] OF PHARMACY, LLC, priority 2011, dated 2024)",
  "molecules": {"B1": {"name": "VLO4 (protein)", "chain": "MNSGNPCCDPVTCKPRRGEHCVSGPCCRNCKFLNAGTICKRARGDDMNDYCTGISPDCPRNPWKG"}},
  "key": {"colorectal cancer": {"system": "colorectal cancer", "conditions": "in combination with the standard Saltz regime of irinotecan, 5-fluorouracil, and leucovorin; cited from earlier work"}, "HDMEC": {"system": "HDMEC", "assay": "Microcarrier (EC-bead) in vitro sprout angiogenesis assay of HDMEC in fibrin gel", "type": "cell-based, human", "conditions": "for sprout angiogenesis in a HDMEC culture in VEGF and bFGF (Example 4): agent(s) added to HDMEC culture in VEGF and bFGF, doses not printed in this block; for sprout angiogenesis of HDMEC in fibrin induced by VEGF and bFGF: 3 days; for sprout angiogenesis of HDMEC in fibrin, single agent (Example 4 summary): in vitro, doses not given", "description": "Human dermal microvascular endothelial cells (HDMEC) were isolated from human neonatal foreskins. Briefly, after initial harvest from minced trypsinized human foreskins, microvascular endothelial cells were further purified on a PERCOLL density gradient. HDMEC were cultured on collagen type 1 coated tissue culture flasks in EGM (endothelial cell growth medium) consisting of EBM supplemented with 10 ng/ml epidermal growth factor, 0.4% bovine brain extract, 17.5 microg/ml dibutyryl cyclic AMP, and 1 microg/ml hydrocortisone in the presence of 30% normal human serum. Endothelial cell cultures were characterized and determined to be >99% pure on the basis of formation of typical cobblestone monolayers in culture, positive immunostaining for factor VIII-related antigen, and selective uptake of acetylated low density lipoprotein. All experiments were done with HDMEC below passage 10. Bovine aortic endothelial cells (BAEC) were obtained from BioWhittaker, Inc. (Walkersville, MD) and cultured according to manufacturer's instruction. BAEC between passage 4 and 8 were used for experiments.\nGelatin-coated CYTODEX-3 microcarrier beads were prepared as described by the manufacturer. Approximately 80,000 sterile microcarrier beads were washed, resuspended in EGM, and added to approximately 4.5 million endothelial cells (HDMEC or BAEC). The beads and cells were mixed by gentle swirling, incubated at 37° C. for 6 hr, and then rotated for 24-36 hr on an orbital mixer in a 37° C. oven to generate endothelial cell-loaded microcarrier beads (EC-beads).\nFIGS. 1A-1C illustrate a study of human microvascular endothelial cell angiogenesis, according to some embodiments. A microcarrier, in vitro angiogenesis assay, previously designed to investigate bovine pulmonary artery endothelial cell angiogenic behavior in bovine fibrin gels, was modified for the study of human microvascular endothelial cell angiogenesis. The HDMEC were isolated from human neonatal foreskins and used, as described above, and images were captured at various magnifications, where the effect of angiogenic factors on sprout angiogenesis was quantified visually by counting the number and percent of EC-beads with capillary sprouts. […]\nFor experiments using RGD peptides, EC-beads were firstly incubated with vary concentrations of peptides for one hour and then were added to the ECM solutions. About 500 EC-beads were then added to the ECM protein solutions, followed by the addition of 0.5 U/ml human thrombin. A 0.3 ml aliquot of each suspension was immediately added to appropriate wells of a 24-well tissue culture plate. After gelation, 1 ml of fresh assay medium (EBM supplemented with 20% normal human serum for HDMEC or EBM supplemented with 10% fetal bovine serum for BAEC) was added to each well.\nFIGS. 1B and 1C show how the angiogenic response was monitored visually and recorded by video image capture. Specifically, capillary sprout formation was observed and recorded with a NIKON Diaphot-TMD inverted microscope (Nikon Inc., Melville, NY), equipped with an incubator housing with a NIKON NP-2 thermostat and Sheldon #2004 carbon dioxide flow mixer. The microscope was directly interfaced to a video system consisting of a Dage-MTI CCD-72S video camera and Sony 12″ PVM-122 video monitor linked to a Macintosh G3 computer. The images were captured at various magnifications using Adobe Photoshop. The effect of angiogenic factors on sprout angiogenesis was quantified visually by determining the number and percent of EC-beads with capillary sprouts. 100-200 beads (five random low power fields) in each of triplicate wells were counted for each experimental condition. All experiments were repeated at least three times."}, "HT1080 tumor cell": {"system": "HT1080 tumor cell", "assay": "HT1080 tumor cell invasion from contracted collagen into fibrin 3D matrices", "type": "cell-based", "conditions": "for HT1080 tumor cell invasion from contracted collagen into fibrin 3D matrices: 3 μg/ml, FIGS. 11 and 12"}, "[1]": {"target": "collagen receptors α2β1 integrins (Homo sapiens, UniProt P05556+P17301)", "conditions": "cited from earlier work"}, "[2]": {"system": "H1650 (Human metastatic lung cancer cell line)", "assay": "H1650 tumor cell proliferation", "type": "cell-based", "conditions": "FIG. 13"}, "[3]": {"system": "A549 (human alveolar adenocarcinoma cell line)", "assay": "A549 tumor cell proliferation", "type": "cell-based", "conditions": "FIG. 13"}},
  "note": "“Also recorded” adds a separate entry of the source.",
  "data": [
    {"molecule": "AVASTATIN: human monoclonal antibody to VEGF", "values": [
      {"measurement": "increase in survival time", "setting": "colorectal cancer", "value": "more than 30%"}
    ]},
    {"molecule": "Echistatin (QCESGPCCRNCKFLKEGTICKRARGDDMDDYCNGKTCDCPRNPHKGPAT)", "values": [
      {"measurement": "sprout angiogenesis in a HDMEC culture in VEGF and bFGF (Example 4)", "setting": "HDMEC", "value": "inhibition"},
      {"measurement": "sprout angiogenesis of HDMEC in fibrin induced by VEGF and bFGF", "setting": "HDMEC; echistatin 0.1 μg/ml alone, VEGF 30 ng/ml, bFGF 25 ng/ml, FIG. 10B", "value": "didn't significantly inhibit"},
      {"measurement": "sprout angiogenesis of HDMEC in fibrin, single agent (Example 4 summary)", "setting": "HDMEC", "value": "dose dependently inhibits"},
      {"measurement": "HT1080 tumor cell invasion from contracted collagen into fibrin 3D matrices", "setting": "HT1080 tumor cell", "value": "significantly inhibit"}
    ]},
    {"molecule": "GPenGRGDSPCA [RGD[VN], reference compound]", "values": [
      {"measurement": "sprout angiogenesis of HDMEC in fibrin", "setting": "HDMEC; RGD[VN] 12.5 mM-100 mM, pre-incubated 1 hr at RT, VEGF 100 ng/ml, compared to GRGESP[RGE] control peptide, FIG. 4", "value": "significantly inhibited"}
    ]},
    {"molecule": "VP12", "values": [
      {"measurement": "sprout angiogenesis of HDMEC in fibrin induced by VEGF and bFGF", "setting": "HDMEC; VP12 10 μg/ml alone, VEGF 30 ng/ml, bFGF 25 ng/ml", "value": "didn't significantly inhibit"},
      {"measurement": "enhancement of the inhibition of sprout angiogenesis by echistatin", "setting": "HDMEC; VP12 (ECL12) administered in combination with echistatin", "value": "significantly and synergistically enhanced"},
      {"measurement": "sprout angiogenesis in a HDMEC culture in VEGF and bFGF (Example 4)", "setting": "HDMEC", "value": "inhibition"},
      {"measurement": "sprout angiogenesis of HDMEC in fibrin, single agent (Example 4 summary)", "setting": "HDMEC", "value": "no inhibitory effect"},
      {"measurement": "HT1080 tumor cell invasion from contracted collagen into fibrin 3D matrices", "setting": "HT1080 tumor cell", "value": "significantly inhibit"},
      {"measurement": "inhibitory activity against collagen receptors α2β1 integrins", "setting": "[1]", "value": "potent inhibitory activity"}
    ]},
    {"molecule": "B1", "values": [
      {"measurement": "sprout angiogenesis of HDMEC in fibrin induced by VEGF and bFGF", "setting": "HDMEC; VLO4 0.01 μg/ml alone, VEGF 30 ng/ml, bFGF 25 ng/ml", "value": "didn't significantly inhibit"},
      {"measurement": "sprout angiogenesis of HDMEC induced by VEGF in fibrin", "setting": "HDMEC; VLO4 0.3 μg/ml-3 μg/ml, 30 minutes at RT, VEGF 100 ng/ml, FIG. 5", "value": "dose-dependently inhibits"},
      {"measurement": "disruption of newly formed angiogenic sprouts of HDMEC in fibrin", "setting": "HDMEC; VLO4 3 μg/ml added on day 5, read within 24 hours, VEGF 30 ng/ml, bFGF 25 ng/ml, CH2 10 μg/ml, FIG. 7B", "value": "totally disrupted; also recorded: disrupts"},
      {"measurement": "sprout angiogenesis of HDMEC induced by VEGF in fibrin (micrographs)", "setting": "HDMEC; VLO4 0.01, 0.1, 0.3 and 1 μg/ml, 30 minutes at room temperature, VEGF 100 ng/ml, FIGS. 6A-6D", "value": "dose-dependently inhibits"},
      {"measurement": "HT1080 tumor cell invasion from contracted collagen into fibrin 3D matrices", "setting": "HT1080 tumor cell", "value": "significantly inhibit"},
      {"measurement": "HT1080 tumor cell invasion from contracted 3D collagen matrices into 3D fibrin matrices, dose dependence", "setting": "HT1080 tumor cell; FIG. 11", "value": "dose dependently inhibits"},
      {"measurement": "H1650 tumor cell proliferation", "setting": "[2]", "value": "significantly inhibited"},
      {"measurement": "A549 tumor cell proliferation", "setting": "[3]", "value": "significantly inhibited"}
    ]}
  ]
}
